Reference: ChEMBL document CHEMBL5653634, “The effect of the PKC inhibitor GF109203X on the release of Ca2+ from internal stores and Ca2+ entry in DDT1 MF-2 cells” (1996)
Active and inactive are the calls of the source. No cut-off for these calls is given here.

Tests used:
[1] = Inhibition of PKC in golden hamster DDT1-MF2 cells by measuring basal cytoplasmic calcium concentration at 5 uM incubated for 45 mins in presence of extracellular calcium 2+; design: species or system Mesocricetus auratus; settings: 0.75 h
DDT1-MF2 [2] = test: Inhibition of PKC in golden hamster DDT1-MF2 cells assessed as increase in inositol 1,4,5-trisphosphate formation at 5 uM incubated for 45 mins by liquid scintillation counting analysis; assay type: cell-based; settings: Mesocricetus auratus
[3] = Inhibition of PKC in golden hamster DDT1-MF2 cells assessed as inhibition of histamine-induced calcium response by measuring maximal cytoplasmic calcium concentration at 5 uM preincubated for 45 mins in presence of extracellular calcium 2+ followed by histamine stimulation; design: species or system Mesocricetus auratus; settings: 0.75 h
[4] = Inhibition of PKC in golden hamster DDT1-MF2 cells assessed as inhibition of histamine-induced calcium response by measuring cytoplasmic calcium concentration at 5 uM preincubated for 45 mins in presence of extracellular calcium 2+ followed by histamine stimulation measured after 5 mins; design: species or system Mesocricetus auratus; settings: time 50 min
[5] = Inhibition of PKC in golden hamster DDT1-MF2 cells by measuring basal cytoplasmic calcium concentration at 5 uM incubated for 45 mins in absence of extracellular calcium 2+; design: species or system Mesocricetus auratus; settings: 0.75 h
[6] = Inhibition of PKC in golden hamster DDT1-MF2 cells assessed as inhibition of histamine-induced calcium response by measuring cytoplasmic calcium concentration at 5 uM preincubated for 45 mins in absence of extracellular calcium 2+ followed by histamine stimulation; design: species or system Mesocricetus auratus; settings: 0.75 h
DDT1-MF2 [7] = test: Inhibition of PKC in golden hamster DDT1-MF2 cells assessed as decrease in histamine-induced inositol 1,4,5-trisphosphate formation at 5 uM incubated for 45 mins followed by histamine stimulation by liquid scintillation counting analysis; assay type: cell-based; settings: Mesocricetus auratus
DDT1-MF2 [8] = test: Inhibition of PKC in golden hamster DDT1-MF2 cells assessed as decrease in histamine-induced inositol 1,4,5-trisphosphate formation at 5 uM incubated for 45 mins in presence of PMA followed by histamine stimulation by liquid scintillation counting analysis; assay type: cell-based; settings: Mesocricetus auratus
[9] = Inhibition of PKC in golden hamster DDT1-MF2 cells by measuring cytoplasmic calcium concentration at 5 uM incubated for 10 mins; design: species or system Mesocricetus auratus
[10] = Inhibition of PKC in golden hamster DDT1-MF2 cells by measuring cytoplasmic calcium concentration at 5 uM incubated for 10 mins in presence of LaCl3; design: species or system Mesocricetus auratus
[11] = Inhibition of PKC in golden hamster DDT1-MF2 cells assessed as decrease in histamine-induced calcium release by measuring cytoplasmic calcium concentration at 5 uM incubated for 45 mins in presence of LaCl3; design: species or system Mesocricetus auratus; settings: 0.75 h
DDT1-MF2 [12] = test: Inhibition of PKC in golden hamster DDT1-MF2 cells assessed as decrease in histamine-induced calcium release by measuring cytoplasmic calcium concentration incubated for 45 mins followed by histamine and LaCl3 addition; assay type: cell-based; settings: Mesocricetus auratus
DDT1-MF2 [13] = test: Inhibition of PKC in golden hamster DDT1-MF2 cells assessed as decrease in thapsigargin-induced calcium release by measuring cytoplasmic calcium concentration at 5 uM incubated for 45 mins followed by thapsigargin and LaCl3 addition; assay type: cell-based; settings: Mesocricetus auratus
[14] = Inhibition of PKC in golden hamster DDT1-MF2 cells assessed as decrease in thapsigargin-induced calcium release by measuring cytoplasmic calcium concentration at 5 uM incubated for 45 mins followed by thapsigargin and LaCl3 addition measured after 5 mins; design: species or system Mesocricetus auratus; settings: time 50 min
[15] = Inhibition of PKC in golden hamster DDT1-MF2 cells assessed as decrease in thapsigargin-induced calcium release by measuring cytoplasmic calcium concentration at 5 uM incubated for 45 mins followed by thapsigargin, PMA and LaCl3 addition measured after 48 hrs; design: species or system Mesocricetus auratus; settings: time 2925 min, 48.75 h
[16] = Inhibition of PKC in golden hamster DDT1-MF2 cells assessed as decrease in Ins(1,4,5)P3-induced calcium 2+ efflux at 5 uM incubated for 14 mins by liquid scintillation counting analysis relative to control; settings: Mesocricetus auratus, DDT1-MF2, 14 min
[17] = Inhibition of PKC in golden hamster DDT1-MF2 cells assessed as decrease in calcium 2+ efflux at 5 uM incubated for 10 mins by liquid scintillation counting analysis relative to control; settings: Mesocricetus auratus, DDT1-MF2, 10 min
[18] = Inhibition of PKC in golden hamster DDT1-MF2 cells by measuring calcium 2+ uptake at 5 uM preincubated for 45 mins followed by extracellular calcium 2+ addition measured after 5 mins by liquid scintillation counting analysis (reference value: 100 +/- 6 %); design: species or system Mesocricetus auratus; scale not given: the % may be the effect or the level left; settings: time 50 min
[19] = Inhibition of PKC in golden hamster DDT1-MF2 cells by measuring calcium 2+ uptake at 5 uM preincubated for 45 mins followed by extracellular calcium 2+ and histamine addition measured after 5 mins by liquid scintillation counting analysis (reference value: 100 +/- 6 %); design: species or system Mesocricetus auratus; scale not given: the % may be the effect or the level left; settings: time 50 min
[20] = Inhibition of PKC in golden hamster DDT1-MF2 cells by measuring calcium 2+ uptake at 5 uM preincubated for 45 mins followed by extracellular calcium 2+ and thapsigargin addition measured after 5 mins by liquid scintillation counting analysis (reference value: 100 +/- 6 %); design: species or system Mesocricetus auratus; scale not given: the % may be the effect or the level left; settings: time 50 min
[21] = Inhibition of PKC in golden hamster DDT1-MF2 cells assessed as decrease in thapsigargin-induced calcium release by measuring basal cytoplasmic calcium concentration at 5 uM incubated for 45 mins followed by thapsigargin and LaCl3 addition measured after 5 mins; design: species or system Mesocricetus auratus; settings: time 50 min
[22] = Inhibition of PKC in golden hamster DDT1-MF2 cells by measuring calcium 2+ uptake at 10 uM preincubated for 45 mins followed by extracellular calcium 2+ addition measured after 5 mins by liquid scintillation counting analysis (reference value: 100 +/- 6 %); design: species or system Mesocricetus auratus; scale not given: the % may be the effect or the level left; settings: time 50 min
[23] = Inhibition of PKC in golden hamster DDT1-MF2 cells by measuring calcium 2+ uptake at 1 uM preincubated for 45 mins followed by extracellular calcium 2+ addition measured after 5 mins by liquid scintillation counting analysis (reference value: 100 +/- 6 %); design: species or system Mesocricetus auratus; scale not given: the % may be the effect or the level left; settings: time 50 min
[24] = Inhibition of PKC in golden hamster DDT1-MF2 cells by measuring basal cytoplasmic calcium concentration at 0.5 uM incubated for 5 mins in presence of extracellular calcium 2+; design: species or system Mesocricetus auratus
[25] = Inhibition of PKC in golden hamster DDT1-MF2 cells assessed as inhibition of histamine-induced calcium response by measuring maximal cytoplasmic calcium concentration at 0.5 uM preincubated for 5 mins in presence of extracellular calcium 2+ followed by histamine stimulation; design: species or system Mesocricetus auratus
[26] = Inhibition of PKC in golden hamster DDT1-MF2 cells assessed as inhibition of histamine-induced calcium response by measuring maximal cytoplasmic calcium concentration at 0.5 uM preincubated for 5 mins in presence of extracellular calcium 2+ followed by histamine stimulation measured after 5 mins; design: species or system Mesocricetus auratus; settings: time 10 min
[27] = Inhibition of PKC in golden hamster DDT1-MF2 cells by measuring basal cytoplasmic calcium concentration at 0.5 uM incubated for 5 mins in absence of extracellular calcium 2+; design: species or system Mesocricetus auratus
[28] = Inhibition of PKC in golden hamster DDT1-MF2 cells assessed as inhibition of histamine-induced calcium response by measuring cytoplasmic calcium concentration at 0.5 uM preincubated for 5 mins in absence of extracellular calcium 2+ followed by histamine stimulation; design: species or system Mesocricetus auratus
DDT1-MF2 [29] = test: Inhibition of PKC in golden hamster DDT1-MF2 cells assessed as decrease in histamine-induced inositol 1,4,5-trisphosphate formation at 1 uM incubated for 5 mins followed by histamine stimulation by liquid scintillation counting analysis; assay type: cell-based; settings: Mesocricetus auratus
[30] = Inhibition of PKC in golden hamster DDT1-MF2 cells assessed as decrease in histamine-induced inositol 1,4,5-trisphosphate formation by measuring inositol 1,4,5-trisphosphate level measured per 10^6 cells at 1 uM incubated for 48 hrs followed by histamine addition; design: species or system Mesocricetus auratus
[31] = Inhibition of PKC in golden hamster DDT1-MF2 cells by measuring inositol 1,4,5-trisphosphate level measured per 10^6 cells at 1 uM incubated for 48 hrs; design: species or system Mesocricetus auratus

For `CN(C)CCCn1cc(C2=C(c3c[nH]c4ccccc34)C(=O)NC2=O)c2ccccc21` [GF-109203], the Activity [1] was 102 nM, the inhibition (DDT1-MF2 [2]) was “Active” and the Activity [3] was 63 nM. It also gave an Activity [4] of 42 nM, an Activity [5] of 82 nM and an Activity [6] of 40 nM. The inhibition (DDT1-MF2 [7]) was “inactive”, the inhibition (DDT1-MF2 [8]) was “inactive” and the Activity [9] was 9 nM. The Activity [10] was 7 nM, the Activity [11] was 38 nM and the inhibition (DDT1-MF2 [12]) was “Dose-Dependent Effect”. For the same compound, the inhibition (DDT1-MF2 [13]) was “Active”, the Activity [14] was 68 nM and the Activity [15] was 73 nM. For the same compound, the inhibition at 5 µM [16] was 58%, the inhibition at 5 µM [17] was 93% and the Activity [18] was 167%. The Activity [19] was 155%, the Activity [20] was 238% and the Activity [21] was 105 nM.
With `Cn1cc(C2=C(c3cn(CCCSC(=N)N)c4ccccc34)C(=O)NC2=O)c2ccccc21` [BISINDOLYLMALEIMIDE IX] the Activity [22] was 135%.
`C/C=C(/C)C(=O)O[C@H]1C(C)=C2[C@H]([C@@H]1OC(=O)CCCCCCC)[C@@](C)(OC(C)=O)C[C@H](OC(=O)CCC)[C@@]1(O)[C@H]2OC(=O)[C@@]1(C)O` [THAPSIGARGIN] showed an Activity [23] of 221%.
Work on `CCCCCCCCCCCCCC(=O)O[C@@H]1[C@@H](C)[C@@]2(O)[C@@H](C=C(CO)C[C@]3(O)C(=O)C(C)=C[C@@H]23)[C@@H]2C(C)(C)[C@]12OC(C)=O` [PHORBOL MYRISTATE ACETATE] yielded an Activity [24] of 129 nM, an Activity [25] of 50 nM and an Activity [26] of 0 nM. The Activity [27] was 80 nM, the Activity [28] was 53 nM and the inhibition (DDT1-MF2 [29]) was “Active”. It also gave an Activity [30] of 11.5 pmol and an Activity [31] of 11.6 pmol.
